Experiments:
Format in all cases: cell-based
[1] = HEK293 cellular growth inhibition assay (CellTiter-Glo); conditions: human, HEK293 cells, 7 days of incubation
Protocol: (§1) HEK293 (Institute of Cytology Russian Academy of Science), MV4-11 (ATCC, CRL-9591), MOLM-13 (AcceGen, ABC-TC517S) were seeded at a density of 500 cells per well (HEK293) and 2000 cells per well (MV4-11, MOLM-13) in a 384-well clear bottom plate (Greiner Cat #781090) in 45 μl total volume of DMEM (PanEco, Cat #C420, Russia) or RPMI (PanEco, Cat #C330, Russia) with 10% FBS (HyClone Cat #SV30160.03). HEK293 were allowed to adhere overnight at 37° C., 5% CO2. 500× compounds solutions in DMSO (Sigma Cat #D2650) were prepared into Cmpnds plate (Diamond Well Plate, Axigen, Cat #P-384-120SQ-C-S) and DMSO only control was included. 1 μl of 500× compounds (Cmpnds plate) was added to 49 μl of culture medium into Dilution plate (Diamond Well Plate, Axigen, Cat #P-384-120SQ-C-S), mixed and then 5 μl of 10× compounds solutions were transferred to cells followed by centrifugation at 100 g for 1 min. Final DMSO concentration was 0.2%. After 3 days of incubation, 10 μl of 1× compounds were added to cells. After 7 days of incubation, 12 μl of CellTiter-Glo (Promega, CAT #G7572) were added to the cells, plate was centrifuged at 100 g for 1 min and luminescence signal was measured using Microplate Reader (CLARIOStar).

MOLM-13 = MOLM-13 cellular growth inhibition assay (CellTiter-Glo); conditions: Homo sapiens, 168 h, MOLM-13 cells, 7 days of incubation
Protocol: as §1

MV4-11 = MV4-11 cellular growth inhibition assay (CellTiter-Glo); conditions: Homo sapiens, 168 h, MV4-11 cells, 7 days of incubation
Protocol: as §1

SMILES | CC50 at 7 days [1] [µM] | CC50 (MOLM-13) [nM] | CC50 (MV4-11) [nM]
C=CC(=O)N1CCN(C(C)Cn2c(C#N)cc3c(C)c(CN4CCC5(CC4)CN(c4ncnc6ccc(CC(F)(F)F)cc46)C5)ccc32)CC1 (stereo not drawn) [Compound 63, 1-[2-(4-Acryloylpiperazin-1-yl)propyl]-4-methyl-5-({2-[6-(2,2,2-trifluoroethyl)quinazolin-4-yl]-2,7-diazaspiro[3.5]non-7-yl}methyl)-1H-indole-2-carbonitrile] | 2 to 5 | 100 to 500 | 100 to 500
Cc1c(CN2CCC3(CC2)CN(c2ncnc4ccc(CC(F)(F)F)cc24)C3)ccc2c1cc(C#N)n2C(C)CCN1CCN(S(C)(=O)=O)CC1 (stereo not drawn) [Compound 13, 4-Methyl-1-{1-methyl-3-[4-(methylsulfonyl)piperazin-1-yl]propyl}-5-({2-[6-(2,2,2-trifluoroethyl)quinazolin-4-yl]-2,7-diazaspiro[3.5]non-7-yl}methyl)-1H-indole-2-carbonitrile] | 5 to 10 | 500 to 1000 | ≤ 100
Cc1c(CN2CCC3(CC2)CN(c2ncnc4ccc(CC(F)(F)F)cc24)C3)ccc2c1cc(C#N)n2CC1CNC(=O)CO1 (stereo not drawn) [Compound 82, 4-Methyl-1-[(5-oxomorpholin-2-yl)methyl]-5-({2-[6-(2,2,2-trifluoroethyl)quinazolin-4-yl]-2,7-diazaspiro[3.5]non-7-yl}methyl)-1H-indole-2-carbonitrile] | 2 to 5 | 100 to 500 | ≤ 100
Cc1c(CN2CCC3(CC2)CN(c2ncnc4ccc(CC(F)(F)F)cc24)C3)ccc2c1cc(C#N)n2CC1CCNC(=O)CC1 (stereo not drawn) [Compound 5, 4-Methyl-1-[(7-oxoazepan-4-yl)methyl]-5-[[2-[6-(2,2,2-trifluoroethyl)quinazolin-4-yl]-2,7-diazaspiro[3.5]nonan-7-yl]methyl]indole-2-carbonitrile] | ≤ 2 | 500 to 1000 | 100 to 500
Cc1c(CN2CCC3(CC2)CN(c2ncnc4ccc(CC(F)(F)F)cc24)C3)ccc2c1cc(C#N)n2CC1CNC(=O)C(C)O1 (stereo not drawn) [Compound 7, 4-Methyl-1-[(6-methyl-5-oxo-morpholin-2-yl)methyl]-5-[[2-[6-(2,2,2-trifluoroethyl)quinazolin-4-yl]-2,7-diazaspiro[3.5]nonan-7-yl]methyl]indole-2-carbonitrile] | 2 to 5 | 100 to 500 | ≤ 100
Cc1c(CN2CCC3(CC2)CN(c2ncnc4ccc(CC(F)(F)F)cc24)C3)ccc2c1cc(C#N)n2CC12CC(NS(N)(=O)=O)(C1)C2 [Compound 61, 4-[7-[[2-cyano-4-methyl-1-[[3-(sulfamoylamino)-1-bicyclo[1.1.1]pentanyl]methyl]indol-5-yl]methyl]-2,7-diazaspiro[3.5]nonan-2-yl]-6-(2,2,2-trifluoroethyl)quinazoline] | 5 to 10 | 100 to 500 | ≤ 100
Cc1c(CN2CCC3(CC2)CN(c2ncnc4ccc(CC(F)(F)F)cc24)C3)ccc2c1cc(C#N)n2CC1CCNC(=O)C1 (stereo not drawn) [Compound 22, 4-Methyl-1-[(2-oxopiperidin-4-yl)methyl]-5-({2-[6-(2,2,2-trifluoroethyl)quinazolin-4-yl]-2,7-diazaspiro[3.5]non-7-yl}methyl)-1H-indole-2-carbonitrile] | 2 to 5 | 500 to 1000 | 100 to 500
C=CC(=O)N1CCN(CCCCn2c(C#N)cc3c(C)c(CN4CCC5(CC4)CN(c4ncnc6ccc(CC(F)(F)F)cc46)C5)ccc32)CC1 [Compound 65, 1-[4-(4-Acryloylpiperazin-1-yl)butyl]-4-methyl-5-({2-[6-(2,2,2-trifluoroethyl)quinazolin-4-yl]-2,7-diazaspiro[3.5]non-7-yl}methyl)-1H-indole-2-carbonitrile] | ≤ 2 | 1000 to 5000 | 100 to 500
Cc1c(CN2CCC3(CC2)CN(c2ncnc4ncc(CC(F)(F)F)nc24)C3)ccc2c1cc(C#N)n2CC(C)N1CCN(S(C)(=O)=O)CC1 (stereo not drawn) [Compound 42, 4-Methyl-1-[2-(4-methylsulfonylpiperazin-1-yl)propyl]-5-[[2-[6-(2,2,2-trifluoroethyl)pteridin-4-yl]-2,7-diazaspiro[3.5]nonan-7-yl]methyl]indole-2-carbonitrile] | ≤ 2 | 100 to 500 | 100 to 500
Cc1c(CN2CCC3(CC2)CN(c2ncnc4ccc(CC(F)(F)F)cc24)C3)ccc2c1cc(C#N)n2CC1CCNC(=O)CO1 (stereo not drawn) [Compound 2, 4-Methyl-1-[(3-oxo-1,4-oxazepan-7-yl)methyl]-5-[[2-[6-(2,2,2-trifluoroethyl)quinazolin-4-yl]-2,7-diazaspiro[3.5]nonan-7-yl]methyl]indole-2-carbonitrile] | 2 to 5 | 1000 to 5000 | 100 to 500
Cc1c(CN2CCC3(CC2)CN(c2ncnc4ccc(CC(F)(F)F)cc24)C3)ccc2c1cc(C#N)n2C[C@H]1CNC(=O)CO1 [Compound 101, 4-Methyl-1-{[(2R)-5-oxomorpholin-2-yl]methyl}-5-({2-[6-(2,2,2-trifluoroethyl)quinazolin-4-yl]-2,7-diazaspiro[3.5]non-7-yl}methyl)-1H-indole-2-carbonitrile] | 2 to 5 | 1000 to 5000 | 100 to 500
Cc1c(CN2CCC3(CC2)CN(c2ncnc4ccc(CC(F)(F)F)nc24)C3)ccc2c1cc(C#N)n2CC(C)N1CCN(S(C)(=O)=O)CC1 (stereo not drawn) [Compound 67, 4-Methyl-1-{2-[4-(methylsulfonyl)piperazin-1-yl]propyl}-5-({2-[6-(2,2,2-trifluoroethyl)pyrido[3,2-d]pyrimidin-4-yl]-2,7-diazaspiro[3.5]non-7-yl}methyl)-1H-indole-2-carbonitrile] | 5 to 10 | 100 to 500 | 100 to 500
CS(=O)(=O)N1CCN(CCn2c(C#N)cc3cc(CN4CCC5(CC4)CN(c4ncnc6ccc(CC(F)(F)F)cc46)C5)ccc32)CC1 [Compound 91, 1-{2-[4-(Methylsulfonyl)piperazin-1-yl]ethyl}-5-({2-[6-(2,2,2-trifluoroethyl)quinazolin-4-yl]-2,7-diazaspiro[3.5]non-7-yl}methyl)-1H-indole-2-carbonitrile] | 5 to 10 | 1000 to 5000 | 500 to 1000
Cc1c(CN2CCC3(CC2)CN(c2ncnc4ccc(CC(F)(F)F)cc24)C3)ccc2c1cc(C#N)n2C[C@@H]1CNC(=O)CO1 [Compound 102, 4-Methyl-1-{[(2S)-5-oxomorpholin-2-yl]methyl}-5-({2-[6-(2,2,2-trifluoroethyl)quinazolin-4-yl]-2,7-diazaspiro[3.5]non-7-yl}methyl)-1H-indole-2-carbonitrile] | ≤ 2 | 100 to 500 | ≤ 100
Cc1c(CN2CCC3(CC2)CN(c2ncnc4ccc(CC(F)(F)F)cc24)C3)ccc2c1cc(C#N)n2CC(C)N1CCNC(=O)C1 (stereo not drawn) [Compound 93, 4-Methyl-1-[2-(3-oxopiperazin-1-yl)propyl]-5-({2-[6-(2,2,2-trifluoroethyl)quinazolin-4-yl]-2,7-diazaspiro[3.5]non-7-yl}methyl)-1H-indole-2-carbonitrile] | 2 to 5 | 500 to 1000 | ≤ 100
Cc1c(CN2CCC3(CC2)CN(c2ncnc4ncc(CC(F)(F)F)cc24)C3)ccc2c1cc(C#N)n2CC(C)N1CCN(S(C)(=O)=O)CC1 (stereo not drawn) [Compound 89, 4-Methyl-1-{2-[4-(methylsulfonyl)piperazin-1-yl]propyl}-5-({2-[6-(2,2,2-trifluoroethyl)pyrido[2,3-d]pyrimidin-4-yl]-2,7-diazaspiro[3.5]non-7-yl}methyl)-1H-indole-2-carbonitrile] | ≤ 2 | 500 to 1000 | ≤ 100
Cc1c(CN2CCC3(CC2)CN(c2ncnc4ccc(CC(F)(F)F)cc24)C3)ccc2c1cc(C#N)n2CCCCN1CCN(S(C)(=O)=O)CC1 [Compound 44, 4-Methyl-1-{4-[4-(methylsulfonyl)piperazin-1-yl]butyl}-5-({2-[6-(2,2,2-trifluoroethyl)quinazolin-4-yl]-2,7-diazaspiro[3.5]non-7-yl}methyl)-1H-indole-2-carbonitrile] | 2 to 5 | > 5000 | 1000 to 5000

— patent US20250163061A1 (Bala Therapeutics, Inc., priority 2021, published 2025)
